Patent publication US20250064907A1, “THERAPEUTIC VACCINES FOR TREATMENT OF CHRONIC INFLAMMATORY DISEASES” (ATHEROVAX, LLC, priority 2023, published 2025)
“Also recorded” adds a separate entry of the source. Where no end group is shown, it is not given here.

Key:
IL-6 = IL-6 ELISA in rat colitis model; assay type: in vivo; conditions: for tissue resident IL-6: colon tissue
Procedure: (§1) Rats were vaccinated with a human sTNFR2 peptide, DFALPVEKPLCLOR (SEQ ID NO: 18), targeting the human sTNFR2 peptide. The rats were injected with 25 μg of the peptide subcutaneously with 25 μg Alum as adjuvant in PBS 10 days before initiating colitis. The studies were performed in accordance with the recommendations of the Animal Care and Use Committee of Tbilisi State Medical University. Briefly, the colitis was induced by introduction of 4% acetic acid at 24-hour intervals for three days into the colon under light anesthesia (50 mg/kg ketamine HCl and 5 mg/kg xylaxine). Injections were intrarectal through 2 mm diameter, 6-8 cm long polyethylene catheter to deliver 1 mL solution. See Cagin et al., Exp. Ther. Med. 12 (5): 2958-2964 (2016).
(§2) TNFα and IL-6 cytokines were measured with ELISA kits according to the manufacturer's instructions (Invitrogen). The ELISA plates were developed with tetramethylbenzidine (TMB) substrate and absorbance was read at 450 nm using an ELx808 Ultra Microplate Reader (BioTek Instruments GmbH, Lucerne, Switzerland). […] Reduction in TNFα is consistent with loss of sTNFR2 binding.
(§3) All values reported are mean and standard error of the mean. Group comparisons are either two-tailed t-test or ANOVA calculated using Excel.

thrombus = test: Inferior vena cava ligation thrombus, wet weight; assay type: in vivo, Lewis rats; conditions: for Thrombus (wet weight): 4 hours after ligation, saline 0.015 ± 0.001
Procedure: (§4) Adult Lewis rats weighing 200-250 g were randomly distributed into three treatment groups with 4 male and 4 female rats in each group. Group 1 received 1.0 mL saline subcutaneously on days 0 and 14. Group 2 received 1.0 mL saline with 0.025 mg AtheroVax peptide (SEQ ID NO: 18) and 0.025 mg aluminum hydroxide adjuvant on days 0 and 14. Group 3 received 1.0 mL saline with 0.075 mg AtheroVax peptide (SEQ ID NO: 18) and 0.075 mg aluminum hydroxide adjuvant on days 0 and 14. […] The abdominal cavity was sutured immediately after the ligation. The rats were euthanized 4 hours after dressing.
(§5) The thrombus was removed from the rats and wet weight determined. In addition, blood was recovered from the rats and coagulation parameters prothrombin time (PT), thrombin time (TT), and fibrinogen were measured.
(§6) Statistical analysis of mean and standard deviation for male, female, and combined values were calculated for each of the coagulation parameters. Pairwise comparisons using the students T-test were performed using Excel. Significance was determined if the p-value is less than 0.05.

[1] = system: Rat Colitis Model of Ulcerative Colitis; test: Rat colitis model of ulcerative colitis: visual and gross observations; assay type: in vivo
Procedure: as §1
The study design included 4 treatment groups:
Group B: alum only 10 day prior, followed by colitis
Group C: sTNFR2 peptide (SEQ ID NO: 18)+alum 10 day prior, followed by colitis
Group D: no vaccine and no colitis

[2] = Blood coagulation parameters after inferior vena cava ligation; assay type: in vivo, Lewis rats; conditions: across doses, result in words
Procedure: as §4, §5, §6

rat colon tissue = test: Colon histology, rat colitis model; assay type: in vivo; conditions: for colon micrographs (H&E, Masson's trichrome): tissue loss and inflammation: administered 10 days prior to initiating colitis, result in words, listed as sTNR2 peptide
Procedure: as §1
Colon samples were fixed in 10% neutral buffered formalin for 24 hours at room temperature and embedded in paraffin. Tissue sections, 5 μm thick, were stained with hematoxylin and eosin (H&E), Masson's trichrome, and Periodic Acid-Schiff (PAS) according to the manufacturer's protocols. Histological evaluation of colons were assigned scores, (a score of 1 is normal and a score of 4 is severe pathology) for the number of animals with pathology >2, average pathology score, pathology distribution, and average inflammatory score (Table 7).

TNFα = TNFα ELISA in rat colitis model; assay type: in vivo; conditions: for tissue resident TNFα: colon tissue; for reduction in TNFα: vaccinated animals
Procedure: as §1, §2, §3

[3] = system: regulatory T cells (Tregs); test: FoxP3 immunohistochemistry of colon, rat ulcerative colitis model; assay type: in vivo; conditions: 75 μg peptide and alum adjuvant one week prior to colitis; colon collected 8 days after initiation; vs unvaccinated
Procedure: These studies were performed in accordance with the recommendations of the Animal Care and Use Committee of Tbilisi State Medical University. Colitis was initiated following introduction of 4% acetic acid at 24-hour intervals for three days into colon under light anesthesia (50 mg/kg ketamine HCl and 5 mg/kg xylaxine). Injections were intrarectal through 2 mm diameter, 6-8 cm long polyethylene catheter to deliver 1 mL solution.
Colon samples were fixed in 10% neutral buffered formalin for 24 hours at room temperature and embedded in paraffin. Tissue sections 5 μm thick were stained with hematoxylin and eosin (H&E), Masson's trichrome, and Periodic Acid-Schiff stain (PAS) according to the manufacturer's protocols. The immunohistochemistry utilized a FoxP3 rabbit monoclonal antibody, ab215206, obtained from Abcam (Boston, MA) followed by a goat anti-rabbit secondary antibody conjugated with peroxidase.

[4] = circulating blood, vaccinated vs control animals, result in words
[5] = result in words, listed as AtheroVax
[6] = score of 1 is normal, 4 is severe pathology, colitis only group 4

Substance: DFALPVE/KPLCLQR (DFALPVEKPLCLQR; not fully specified; listed as Homo sapiens) [AtheroVax peptide (SEQ ID NO: 18)]
- IL-6 (mean ± SEM) (IL-6; ELISA, rat colitis model, injection 10 days before colitis, colitis only group 6.46 ± 0.22): 1.76 ± 0.13
- circulating levels of IL-6 (IL-6; [4]): significantly lower
- tissue resident IL-6 (IL-6; result in words): significantly lower
- tissue resident IL-6 (IL-6; [5]): significant reductions
- reduction in IL-6 (IL-6; vaccinated animals, result in words): significant reductions
- Thrombus (wet weight) (thrombus; Grp. 2, 25 μg peptide + adjuvant days 0 and 14): 0.011±0.001 grams
- Thrombus (wet weight) (thrombus; Grp. 3, 75 μg peptide + adjuvant days 0 and 14): 0.007±0.001 grams
- thrombus weight (thrombus; across doses, treatment prior to initiation of thrombosis, result in words): dose dependent smaller
- elevations in body temperature ([1]; rats, 25 μg peptide with 25 μg Alum 10 days before colitis): significantly prevented
- loss of body weight ([1]; rats, 25 μg peptide with 25 μg Alum 10 days before colitis, visual observations): significantly prevented
- gross colon observations (hyperemic, edematous, thickened, sharply increased volume) ([1]; rats, peptide + alum 10 days before colitis, compared with Group A (unvaccinated)): not associated
- Bleeding ([1]; rats, subcutaneous injection 10 days before 4% acetic acid colitis, peptide 25 μg with 25 μg Alum): Hemoccult Negative
- Stool ([1]; rats, subcutaneous injection 10 days before 4% acetic acid colitis, peptide 25 μg with 25 μg Alum, listed as sTNFR2 peptide (SEQ ID NO: 18)+alum): Normal
- Stool ([1]; rats, subcutaneous injection 10 days before 4% acetic acid colitis, peptide 25 μg with 25 μg Alum, listed as sTNR2 peptide (SEQ ID NO: 18)+alum adjuvant): normal stools
- integrity of the colon and outcomes in the rat colitis model ([1]; vaccinated vs control animals, result in words): preserved integrity oof the colon and improved outcomes
- fibrinogen [2]: elevation
- prothrombin times [2]: increased
- thrombin time [2]: decreased
- colon micrographs (H&E, Masson's trichrome): tissue loss and inflammation (rat colon tissue): significant protection against inflammation
- colon micrographs (H&E, Masson's trichrome): tissue loss and inflammation (rat colon tissue; (SEQ ID NO: 18) and alum adjuvant): significant protective effect
- Number animals with pathology >2 (1-5) (rat colon tissue; rat colitis model, colon histology): 5
- Average Inflammatory Score (1-4) (rat colon tissue; [6]): 2
- Average Pathology Score (1-4) (rat colon tissue; [6]): 1
- Pathology Distribution (1-4) (rat colon tissue; [6]): 2
- TNFα (mean ± SEM) (TNFα; ELISA, rat colitis model, injection 10 days before colitis, colitis only group 29.20 ± 0.65): 1.12 ± 0.13
- circulating levels of TNFα (TNFα; [4]): significantly lower
- tissue resident TNFα (TNFα; result in words): significantly lower
- tissue resident TNFα (TNFα; [5]): significant reductions
- reduction in TNFα (TNFα; result in words): significant reductions
- reduction in TNFα (TNFα; result in words, listed as sTNFR2 peptide (SEQ ID NO: 18)+alum): significant reduction
- intensity of FoxP3 (Treg) staining in colon [3]: less intense; also recorded: do not stain as intensely
- number of FoxP3 positive cells in colon [3]: fewer cells; also recorded: reduced; also recorded: lower frequencies
